Holding throughout (assay): MIC by agar plate dilution method on standard strains (Example 3)
Holding throughout (format): cell-based
Holding throughout (conditions): read-out: MIC

Assay [1] has as its system Staphylococcus epidermidis ATCC12228. On the procedure: (§1) Minimum growth-inhibiting concentrations of trifluoromethionine and other antibacterial drugs on standard strains were determined by an agar plate dilution method according to the standard method of Japanese Society of Chemotherapy.
(§2) Drug solutions at a concentration 10 times as high as the maximum applicable concentration were prepared as original solutions of test drugs given in Table 2 (as to solvents used for this purpose, reference should be made also to Table 2). Serial two-fold dilution series of the original solutions were prepared at desired stages, and 1 ml each of the diluted drug solutions was added to 9 ml of media given in Table 3 to prepare drug plates. Concentration range of the individual drugs used are as follows: trifluoromethionine: 400-0.025 μg/ml (15 stages), tetracycline: 100-0.025 μg/ml (13 stages), and clarithromycin: 100-0.025 μg/ml (13 stages).
(§3) • 1) Bacterial solutions stocked at −80° C. were inoculated on agar media (as to media used, reference should be made to Table 3), and then incubated at 37° C. overnight. When desired, subculturing was conducted once more on the same agar media (by overnight incubation at 37° C.). • 2) Colonies growing on the agar media were sampled by a platinum loop, suspended in liquid media (reference should be made to Table 3) and statically incubated at 37° C. for 18 hours (preculturing). • 3) Preculturing was continued up to McFarland 0.5 (McFarland 0.5=about 10^8 CFU/ml), and then the culture broths were diluted with Muellar Hinton Broth to make 10^6 CFU/ml. 5 μl each of the diluted solutions were inoculated on the above-mentioned drug plates by an inoculator Microplanter.
(§4) Thus, bacterial solutions at about 10^8 CFU/ml can be easily prepared by use of McFarland 0.5. Bacterial solutions at such a turbidity are commercially available, but can be easily prepared. McFarland 0.5 can be obtained by adding 0.5 ml of an aqueous 0.048 mol/l barium chloride solution to 99.5 ml of 1% v/v (0.18 mol/l) sulfuric acid. • 4) The individual bacteria were incubated at 37° C. for 18-20 hours and then the growth was determined in the same manner as in Example 2 to obtain minimum growth-inhibiting concentrations.

In assay [2] the test system is Staphylococcus epidermidis ATCC29886. The procedure: as §1, §2, §3, §4
The test system of assay [3] is Bacillus subtilis ATCC6633. On the procedure:
as §3, with “Drug solutions at a concentration 10 times as high as the maximum applicable concentration were prepared as original solutions of test drugs given in Table 2 (as to solvents used for this purpose, reference should be made also to Table 2). Serial two-fold dilution series of the original solutions were prepared at desired stages, and 1 ml each of the diluted drug solutions was added to 9 ml of media given in Table 3 to prepare drug plates. […] • 1)” for “• 1)”, “inoculator Microplanter. […] Thus, bacterial solutions at about 10^8 CFU/ml can be easily prepared by use of McFarland 0.5. Bacterial solutions at such a turbidity are commercially available, but can be easily prepared.” for “inoculator Microplanter.”

Assay [4] deals with Enterococcus faecalis ATCC29247. The procedure: as §3, with “Drug solutions at a concentration 10 times as high as the maximum applicable concentration were prepared as original solutions of test drugs given in Table 2 (as to solvents used for this purpose, reference should be made also to Table 2). Serial two-fold dilution series of the original solutions were prepared at desired stages, and 1 ml each of the diluted drug solutions was added to 9 ml of media given in Table 3 to prepare drug plates. […] • 1)” for “• 1)”, “inoculator Microplanter. […] Thus, bacterial solutions at about 10^8 CFU/ml can be easily prepared by use of McFarland 0.5. Bacterial solutions at such a turbidity are commercially available, but can be easily prepared.” for “inoculator Microplanter.”

The test system of assay [5] is Enterococcus faecium ATCC19434. The procedure: as §3, with “Drug solutions at a concentration 10 times as high as the maximum applicable concentration were prepared as original solutions of test drugs given in Table 2 (as to solvents used for this purpose, reference should be made also to Table 2). Serial two-fold dilution series of the original solutions were prepared at desired stages, and 1 ml each of the diluted drug solutions was added to 9 ml of media given in Table 3 to prepare drug plates. […] • 1)” for “• 1)”, “inoculator Microplanter. […] Thus, bacterial solutions at about 10^8 CFU/ml can be easily prepared by use of McFarland 0.5. Bacterial solutions at such a turbidity are commercially available, but can be easily prepared.” for “inoculator Microplanter.”

The subject of assay [6] is Escherichia coli ATCC25922. On the procedure: as §3, with “Drug solutions at a concentration 10 times as high as the maximum applicable concentration were prepared as original solutions of test drugs given in Table 2 (as to solvents used for this purpose, reference should be made also to Table 2). Serial two-fold dilution series of the original solutions were prepared at desired stages, and 1 ml each of the diluted drug solutions was added to 9 ml of media given in Table 3 to prepare drug plates. […] • 1)” for “• 1)”, “inoculator Microplanter. […] Thus, bacterial solutions at about 10^8 CFU/ml can be easily prepared by use of McFarland 0.5. Bacterial solutions at such a turbidity are commercially available, but can be easily prepared.” for “inoculator Microplanter.”

The test system of assay [7] is Escherichia coli ATCC35218. The procedure:
as §3, with “Drug solutions at a concentration 10 times as high as the maximum applicable concentration were prepared as original solutions of test drugs given in Table 2 (as to solvents used for this purpose, reference should be made also to Table 2). Serial two-fold dilution series of the original solutions were prepared at desired stages, and 1 ml each of the diluted drug solutions was added to 9 ml of media given in Table 3 to prepare drug plates. […] • 1)” for “• 1)”, “inoculator Microplanter. […] Thus, bacterial solutions at about 10^8 CFU/ml can be easily prepared by use of McFarland 0.5. Bacterial solutions at such a turbidity are commercially available, but can be easily prepared.” for “inoculator Microplanter.”

The test system of assay [8] is Haemophilus influenzae ATCC33391. The procedure:
as §3, with “Drug solutions at a concentration 10 times as high as the maximum applicable concentration were prepared as original solutions of test drugs given in Table 2 (as to solvents used for this purpose, reference should be made also to Table 2). Serial two-fold dilution series of the original solutions were prepared at desired stages, and 1 ml each of the diluted drug solutions was added to 9 ml of media given in Table 3 to prepare drug plates. […] • 1)” for “• 1)”, “inoculator Microplanter. […] Thus, bacterial solutions at about 10^8 CFU/ml can be easily prepared by use of McFarland 0.5. Bacterial solutions at such a turbidity are commercially available, but can be easily prepared.” for “inoculator Microplanter.”

The subject of assay [9] is Haemophilus influenzae ATCC33533. The procedure: as §3, with “Drug solutions at a concentration 10 times as high as the maximum applicable concentration were prepared as original solutions of test drugs given in Table 2 (as to solvents used for this purpose, reference should be made also to Table 2). Serial two-fold dilution series of the original solutions were prepared at desired stages, and 1 ml each of the diluted drug solutions was added to 9 ml of media given in Table 3 to prepare drug plates. […] • 1)” for “• 1)”, “inoculator Microplanter. […] Thus, bacterial solutions at about 10^8 CFU/ml can be easily prepared by use of McFarland 0.5. Bacterial solutions at such a turbidity are commercially available, but can be easily prepared.” for “inoculator Microplanter.”

Assay [10] deals with Haemophilus influenzae ATCC49247. The procedure:
as §3, with “Drug solutions at a concentration 10 times as high as the maximum applicable concentration were prepared as original solutions of test drugs given in Table 2 (as to solvents used for this purpose, reference should be made also to Table 2). Serial two-fold dilution series of the original solutions were prepared at desired stages, and 1 ml each of the diluted drug solutions was added to 9 ml of media given in Table 3 to prepare drug plates. […] • 1)” for “• 1)”, “inoculator Microplanter. […] Thus, bacterial solutions at about 10^8 CFU/ml can be easily prepared by use of McFarland 0.5. Bacterial solutions at such a turbidity are commercially available, but can be easily prepared.” for “inoculator Microplanter.”

In assay [11] the test system is Haemophilus influenzae ATCC49766. On the procedure:
as §3, with “Drug solutions at a concentration 10 times as high as the maximum applicable concentration were prepared as original solutions of test drugs given in Table 2 (as to solvents used for this purpose, reference should be made also to Table 2). Serial two-fold dilution series of the original solutions were prepared at desired stages, and 1 ml each of the diluted drug solutions was added to 9 ml of media given in Table 3 to prepare drug plates. […] • 1)” for “• 1)”, “inoculator Microplanter. […] Thus, bacterial solutions at about 10^8 CFU/ml can be easily prepared by use of McFarland 0.5. Bacterial solutions at such a turbidity are commercially available, but can be easily prepared.” for “inoculator Microplanter.”

In assay [12] the test system is Klebsiella pneumoniae ATCC700603. The procedure: as §3, with “Drug solutions at a concentration 10 times as high as the maximum applicable concentration were prepared as original solutions of test drugs given in Table 2 (as to solvents used for this purpose, reference should be made also to Table 2). Serial two-fold dilution series of the original solutions were prepared at desired stages, and 1 ml each of the diluted drug solutions was added to 9 ml of media given in Table 3 to prepare drug plates. […] • 1)” for “• 1)”, “inoculator Microplanter. […] Thus, bacterial solutions at about 10^8 CFU/ml can be easily prepared by use of McFarland 0.5. Bacterial solutions at such a turbidity are commercially available, but can be easily prepared.” for “inoculator Microplanter.”

Assay [13] concerns Micrococcus luteus ATCC9341. The procedure:
as §3, with “Drug solutions at a concentration 10 times as high as the maximum applicable concentration were prepared as original solutions of test drugs given in Table 2 (as to solvents used for this purpose, reference should be made also to Table 2). Serial two-fold dilution series of the original solutions were prepared at desired stages, and 1 ml each of the diluted drug solutions was added to 9 ml of media given in Table 3 to prepare drug plates. […] • 1)” for “• 1)”, “inoculator Microplanter. […] Thus, bacterial solutions at about 10^8 CFU/ml can be easily prepared by use of McFarland 0.5. Bacterial solutions at such a turbidity are commercially available, but can be easily prepared.” for “inoculator Microplanter.”

Assay [14] deals with Moraxella (Branhamella) catarrhalis ATCC25238. The procedure:
as §3, with “Drug solutions at a concentration 10 times as high as the maximum applicable concentration were prepared as original solutions of test drugs given in Table 2 (as to solvents used for this purpose, reference should be made also to Table 2). Serial two-fold dilution series of the original solutions were prepared at desired stages, and 1 ml each of the diluted drug solutions was added to 9 ml of media given in Table 3 to prepare drug plates. […] • 1)” for “• 1)”, “inoculator Microplanter. […] Thus, bacterial solutions at about 10^8 CFU/ml can be easily prepared by use of McFarland 0.5. Bacterial solutions at such a turbidity are commercially available, but can be easily prepared.” for “inoculator Microplanter.”

This note sets out measurements from patent US20050175550A1, “Compositions for oral use” (priority 2000, published 2005).

Converted amounts (≈) assume the structure as drawn.

Turning to `CN(C)[C@@H]1C(O)=C(C(N)=O)C(=O)[C@@]2(O)C(O)=C3C(=O)c4c(O)cccc4[C@@](C)(O)[C@H]3C[C@@H]12` [TC, Tetracycline], the MIC amounted to 50 µg/mL (≈ 113 µM) in assay [1]; 0.39 µg/mL (≈ 0.878 µM) in assay [2]; 0.2 µg/mL (≈ 0.45 µM) in assay [3]; 25 µg/mL (≈ 56.3 µM) in assay [4]; 0.2 µg/mL (≈ 0.45 µM) in assay [5]; 1.56 µg/mL (≈ 3.51 µM) in [6]. In addition, the MIC in assay [7] was determined as 1.56 µg/mL (≈ 3.51 µM); in assay [8], 0.78 µg/mL (≈ 1.76 µM); in assay [9], 0.39 µg/mL (≈ 0.878 µM); in [10] it was 25 µg/mL (≈ 56.3 µM); in assay [11], 0.78 µg/mL (≈ 1.76 µM); in [12], 50 µg/mL (≈ 113 µM). Besides, the MIC came out at 0.78 µg/mL (≈ 1.76 µM) in [13] and 0.2 µg/mL (≈ 0.45 µM) in [14].
